Test results reported in patent EP4745135A1 (Gluetacs Therapeutics (Shanghai) Co., Ltd., priority 2023, dated 2025).

Tests used:
GSPT1 = assay: Western blot, degradation of substrate protein in hPBMCs; type: cell-based, Human; settings: 24 hours treatment, compounds at 50 nM and 500 nM (concentration behind the class not stated)
[1] = tested on: Human malignant melanoma cell line: A375; assay: Tumor cell proliferation inhibition (CellTiter-Meiluncell luminescent cell viability assay); settings: A-375, 96 h; for inhibition at 0.01 µM: read-out: Inhibition Rate at 10 nM (%); for inhibition at 0.5 µM: read-out: Inhibition Rate at 500 nM (%)
Method: (§1) The tumor cells used herein were cultured in a cell culture medium listed in table 2 at 37°C in an incubator with 5% CO2. Prior to experimentation, all cell lines used were correctly identified by STR profiling, and tested negative for mycoplasma contamination using a mycoplasma detection kit through routine screenings.
(§2) The IC50 values of the compounds of the present disclosure (including the compounds in Table 1 and Examples) were determined using the CellTiter-Meiluncell Luminescent Cell Viability Assay Kit from Dalian Meilun Biotech Co., Ltd. The detailed procedure is as follows: Tumor cells were seeded in 96-well cell culture plates at the densities specified in Table 3. On the following day, the test compounds of the present disclosure were subjected to serial dilution. The dilution can be performed according to one of the following two methods: • (1) The first dilution method: The test compounds of the present disclosure (including the compounds in Table 1 and Examples) were subjected to 5-fold serial dilutions starting from a highest concentration of 2000 µM, resulting in a total of 9 concentrations from high to low (2000, 400, 80, 16, 3.2, 0.64, 0.128, 0.0256, 0.00512 µM). Subsequently, 0.5 µL of the test compound dilution was transferred into the 96-well plate containing the cells, with each well containing 100 µL of cell culture medium. […] Into the 96-well plate, the diluted test compounds and corresponding detection reagents were added, resulting in final test compound concentrations of 500 nM and 10 nM, respectively. The experimental procedure is described below using the diluted 2 µM test compound as an example.
(§3) 0.5 µL of the aforementioned diluted compound of the present disclosure (including the compounds in Table 1 and Examples) was added to the seeded cells in 100 µL of medium, yielding a final test compound concentration of 10 nM. After the cells were treated with the compounds of the present disclosure for a specified period, the cell viability assay reagent was added to the culture medium according to the kit's instructions to determine cell viability. […] All controls were treated using the same procedure as the compounds of the present disclosure. The growth inhibition curves for the compounds of the present disclosure were plotted using Prism GraphPad software, and the IC50 values were calculated therefrom.

[2] = biological target: T1, human Cereblon WT GST-tagged protein (Homo sapiens, UniProt Q96SW2); assay: CRBN-binding affinity, HTRF (CEREBLON BINDING kit); settings: for inhibition at 0.5 µM: read-out: Inhibition Rate at 0.5 µM (%); for inhibition at 2 µM: read-out: Inhibition Rate at 2 µM (%)
T1 construct: purchased CISBIO 64BDCRBNPEH
T1 sequence (Q96SW2 whole entry): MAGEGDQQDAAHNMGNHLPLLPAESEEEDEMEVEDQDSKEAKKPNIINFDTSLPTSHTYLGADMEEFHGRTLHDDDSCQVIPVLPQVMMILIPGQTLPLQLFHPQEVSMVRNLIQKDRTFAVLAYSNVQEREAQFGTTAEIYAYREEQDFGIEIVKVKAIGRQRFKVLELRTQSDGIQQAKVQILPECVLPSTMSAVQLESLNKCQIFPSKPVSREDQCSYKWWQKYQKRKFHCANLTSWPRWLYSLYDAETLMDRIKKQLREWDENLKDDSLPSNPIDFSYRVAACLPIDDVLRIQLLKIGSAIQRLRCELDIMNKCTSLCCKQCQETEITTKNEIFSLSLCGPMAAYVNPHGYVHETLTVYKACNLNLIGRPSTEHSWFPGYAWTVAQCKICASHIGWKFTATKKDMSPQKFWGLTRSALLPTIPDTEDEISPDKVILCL

WEE1 = biological target: T2, WEE1 (Homo sapiens, UniProt P30291+Q96SW2); assay: Western blot, degradation of substrate protein in hPBMCs; type: cell-based; settings: 24 hours treatment, compounds at 50 nM and 500 nM (concentration behind the class not stated)
T2 construct: effects of the compounds of the present disclosure on the expression of target proteins in cells; endogenous in cells; host or cells: human PBMCs (Milecell Biotechnologies)
T2 sequence (P30291 whole entry): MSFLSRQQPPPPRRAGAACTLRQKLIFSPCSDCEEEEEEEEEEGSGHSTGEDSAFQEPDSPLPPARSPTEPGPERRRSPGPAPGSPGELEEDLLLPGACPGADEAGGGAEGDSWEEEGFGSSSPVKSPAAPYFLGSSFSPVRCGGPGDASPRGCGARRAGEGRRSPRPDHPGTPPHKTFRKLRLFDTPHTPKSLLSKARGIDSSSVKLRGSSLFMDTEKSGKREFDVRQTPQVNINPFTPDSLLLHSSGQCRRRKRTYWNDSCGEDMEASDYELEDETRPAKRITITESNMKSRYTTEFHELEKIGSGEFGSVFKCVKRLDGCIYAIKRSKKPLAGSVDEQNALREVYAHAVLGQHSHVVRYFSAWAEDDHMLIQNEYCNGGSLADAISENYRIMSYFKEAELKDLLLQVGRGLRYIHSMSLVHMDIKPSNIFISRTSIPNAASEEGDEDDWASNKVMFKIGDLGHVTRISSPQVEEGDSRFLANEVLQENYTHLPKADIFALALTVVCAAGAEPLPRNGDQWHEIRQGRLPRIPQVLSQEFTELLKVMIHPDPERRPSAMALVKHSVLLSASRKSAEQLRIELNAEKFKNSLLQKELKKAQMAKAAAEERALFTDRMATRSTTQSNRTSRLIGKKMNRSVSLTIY
T2 sequence (Q96SW2 whole entry): as the sequence (Q96SW2 whole entry) above
T2 sequence (Q16531 whole entry partner): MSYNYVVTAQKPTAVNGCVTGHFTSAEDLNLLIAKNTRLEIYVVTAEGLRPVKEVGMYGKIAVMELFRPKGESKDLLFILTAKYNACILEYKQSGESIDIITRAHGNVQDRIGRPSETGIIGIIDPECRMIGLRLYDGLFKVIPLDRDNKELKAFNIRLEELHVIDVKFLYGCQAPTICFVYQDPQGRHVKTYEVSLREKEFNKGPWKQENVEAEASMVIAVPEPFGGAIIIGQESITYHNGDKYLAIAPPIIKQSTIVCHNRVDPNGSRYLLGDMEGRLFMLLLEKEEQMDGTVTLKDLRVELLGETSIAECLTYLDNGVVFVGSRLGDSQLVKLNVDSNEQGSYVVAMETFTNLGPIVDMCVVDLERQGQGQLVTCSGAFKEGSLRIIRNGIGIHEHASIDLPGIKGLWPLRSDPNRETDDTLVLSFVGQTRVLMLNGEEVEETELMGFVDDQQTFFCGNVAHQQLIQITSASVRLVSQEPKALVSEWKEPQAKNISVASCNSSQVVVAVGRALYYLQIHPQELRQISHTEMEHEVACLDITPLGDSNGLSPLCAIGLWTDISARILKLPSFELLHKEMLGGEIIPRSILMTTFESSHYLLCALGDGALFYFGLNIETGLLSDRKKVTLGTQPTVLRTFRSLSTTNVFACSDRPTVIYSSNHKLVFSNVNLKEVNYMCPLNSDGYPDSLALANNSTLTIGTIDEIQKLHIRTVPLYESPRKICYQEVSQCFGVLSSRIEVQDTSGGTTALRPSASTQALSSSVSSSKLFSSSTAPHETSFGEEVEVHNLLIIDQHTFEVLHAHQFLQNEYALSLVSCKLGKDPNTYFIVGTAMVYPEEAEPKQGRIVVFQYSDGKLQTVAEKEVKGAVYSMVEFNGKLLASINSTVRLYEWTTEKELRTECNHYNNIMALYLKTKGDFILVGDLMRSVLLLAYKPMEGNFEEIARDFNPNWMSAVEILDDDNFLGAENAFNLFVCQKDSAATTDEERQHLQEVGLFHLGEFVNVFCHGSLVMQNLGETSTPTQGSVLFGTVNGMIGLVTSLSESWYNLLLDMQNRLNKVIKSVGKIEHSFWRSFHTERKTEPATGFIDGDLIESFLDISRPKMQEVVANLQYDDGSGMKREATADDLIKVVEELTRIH

IKZF2 = biological target: T3, IKZF2 (Homo sapiens, UniProt Q96SW2+Q9UKS7); assay: as above; type: cell-based; settings: 24 hours treatment, compounds at 50 nM and 500 nM (concentration behind the class not stated)
T3 construct: effects of the compounds of the present disclosure on the expression of target proteins in cells; endogenous in cells; host or cells: human PBMCs (Milecell Biotechnologies)
T3 sequence (Q9UKS7 whole entry): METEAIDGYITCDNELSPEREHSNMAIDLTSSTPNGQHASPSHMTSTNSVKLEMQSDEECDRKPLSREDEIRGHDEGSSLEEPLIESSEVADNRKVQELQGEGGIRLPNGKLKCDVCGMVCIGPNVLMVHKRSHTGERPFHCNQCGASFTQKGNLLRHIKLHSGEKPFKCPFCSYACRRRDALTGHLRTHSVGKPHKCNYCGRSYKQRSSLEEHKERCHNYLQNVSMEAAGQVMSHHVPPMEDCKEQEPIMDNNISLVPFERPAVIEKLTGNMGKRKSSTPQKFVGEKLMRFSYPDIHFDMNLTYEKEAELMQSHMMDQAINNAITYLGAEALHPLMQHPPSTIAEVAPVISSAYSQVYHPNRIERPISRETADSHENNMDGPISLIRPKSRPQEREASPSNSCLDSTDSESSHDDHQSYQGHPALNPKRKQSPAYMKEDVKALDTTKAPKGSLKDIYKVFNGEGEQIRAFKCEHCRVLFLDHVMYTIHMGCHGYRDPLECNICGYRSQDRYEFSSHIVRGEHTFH
T3 sequence (Q96SW2 whole entry): as the sequence (Q96SW2 whole entry) above
T3 sequence (Q16531 whole entry partner): as the sequence (Q16531 whole entry partner) above

IKZF1 = biological target: T4, IKZF1 (Homo sapiens, UniProt Q13422+Q96SW2); assay: as above; type: cell-based; settings: 24 hours treatment, compounds at 50 nM and 500 nM (concentration behind the class not stated)
T4 construct: effects of the compounds of the present disclosure on the expression of target proteins in cells; endogenous in cells; host or cells: human PBMCs (Milecell Biotechnologies)
T4 sequence (Q13422 whole entry): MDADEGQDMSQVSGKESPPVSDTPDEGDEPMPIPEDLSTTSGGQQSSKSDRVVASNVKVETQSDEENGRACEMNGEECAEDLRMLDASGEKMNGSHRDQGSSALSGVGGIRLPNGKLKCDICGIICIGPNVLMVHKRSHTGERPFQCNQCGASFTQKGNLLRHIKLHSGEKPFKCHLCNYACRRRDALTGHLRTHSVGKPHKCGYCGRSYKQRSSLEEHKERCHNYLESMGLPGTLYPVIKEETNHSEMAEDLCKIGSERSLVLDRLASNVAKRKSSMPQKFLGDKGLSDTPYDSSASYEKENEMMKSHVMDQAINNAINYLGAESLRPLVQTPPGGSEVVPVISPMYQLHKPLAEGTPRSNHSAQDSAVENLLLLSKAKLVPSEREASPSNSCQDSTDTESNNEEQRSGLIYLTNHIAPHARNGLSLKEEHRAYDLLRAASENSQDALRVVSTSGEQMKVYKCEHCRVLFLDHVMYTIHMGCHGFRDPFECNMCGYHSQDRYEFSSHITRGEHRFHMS
T4 sequence (Q96SW2 whole entry): as the sequence (Q96SW2 whole entry) above
T4 sequence (Q16531 whole entry partner): as the sequence (Q16531 whole entry partner) above

CK1α = biological target: T5, CK1α (Homo sapiens, UniProt P48729+Q96SW2); assay: as above; type: cell-based; settings: 24 hours treatment, compounds at 50 nM and 500 nM (concentration behind the class not stated)
T5 construct: effects of the compounds of the present disclosure on the expression of target proteins in cells; endogenous in cells; host or cells: human PBMCs (Milecell Biotechnologies)
T5 sequence (P48729 whole entry): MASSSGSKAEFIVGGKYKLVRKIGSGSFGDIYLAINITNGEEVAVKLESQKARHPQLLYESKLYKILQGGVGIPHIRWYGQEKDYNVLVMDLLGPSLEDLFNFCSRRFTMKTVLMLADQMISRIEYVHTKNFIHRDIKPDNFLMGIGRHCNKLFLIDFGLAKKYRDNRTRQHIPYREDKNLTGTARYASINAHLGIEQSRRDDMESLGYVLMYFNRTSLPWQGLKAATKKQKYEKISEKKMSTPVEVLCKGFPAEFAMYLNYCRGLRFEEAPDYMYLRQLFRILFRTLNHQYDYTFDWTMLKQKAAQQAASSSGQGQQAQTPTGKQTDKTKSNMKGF
T5 sequence (Q96SW2 whole entry): as the sequence (Q96SW2 whole entry) above
T5 sequence (Q16531 whole entry partner): as the sequence (Q16531 whole entry partner) above

IKZF3 = biological target: T6, IKZF3 (Homo sapiens, UniProt Q96SW2+Q9UKT9); assay: as above; type: cell-based; settings: 24 hours treatment, compounds at 50 nM and 500 nM (concentration behind the class not stated)
T6 construct: effects of the compounds of the present disclosure on the expression of target proteins in cells; endogenous in cells; host or cells: human PBMCs (Milecell Biotechnologies)
T6 sequence (Q9UKT9 whole entry): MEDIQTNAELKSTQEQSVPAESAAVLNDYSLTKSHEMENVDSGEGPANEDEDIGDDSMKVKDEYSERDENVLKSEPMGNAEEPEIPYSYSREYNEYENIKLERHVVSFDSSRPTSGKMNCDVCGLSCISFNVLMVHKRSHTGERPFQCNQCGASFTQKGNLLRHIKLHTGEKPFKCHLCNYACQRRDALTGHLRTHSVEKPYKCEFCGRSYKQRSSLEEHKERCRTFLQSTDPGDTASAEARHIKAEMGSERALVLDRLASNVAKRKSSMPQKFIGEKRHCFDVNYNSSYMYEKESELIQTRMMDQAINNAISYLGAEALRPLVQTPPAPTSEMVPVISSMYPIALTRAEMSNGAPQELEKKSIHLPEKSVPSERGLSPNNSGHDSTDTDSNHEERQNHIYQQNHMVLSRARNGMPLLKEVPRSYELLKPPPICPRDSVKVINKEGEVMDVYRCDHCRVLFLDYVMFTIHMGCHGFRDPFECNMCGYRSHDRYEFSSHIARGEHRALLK
T6 sequence (Q96SW2 whole entry): as the sequence (Q96SW2 whole entry) above
T6 sequence (Q16531 whole entry partner): as the sequence (Q16531 whole entry partner) above

[3] = tested on: Human breast cancer cell (MCF-7); assay: Tumor cell proliferation inhibition (CellTiter-Meiluncell luminescent cell viability assay); settings: MCF7, 96 h; for inhibition at 0.01 µM: read-out: Inhibition Rate at 10 nM (%); for inhibition at 0.5 µM: read-out: Inhibition Rate at 500 nM (%)
Method: as §1, §2, §3

[4] = tested on: Human colon cancer cell line: SW620; assay: as above; settings: SW-620, 96 h; for inhibition at 0.01 µM: read-out: Inhibition Rate at 10 nM (%); for inhibition at 0.5 µM: read-out: Inhibition Rate at 500 nM (%)
[5] = tested on: Human monocytic leukemia cell line: THP-1; assay: as above; settings: THP-1, 96 h; for inhibition at 0.01 µM: read-out: Inhibition Rate at 10 nM (%); for inhibition at 0.5 µM: read-out: Inhibition Rate at 500 nM (%)
[6] = tested on: Human T cell acute lymphoblastic leukemia cell (CCRF-CEM); assay: as above; settings: 96 h; for inhibition at 0.01 µM: read-out: Inhibition Rate at 10 nM (%); for inhibition at 0.5 µM: read-out: Inhibition Rate at 500 nM (%)
Method: as §1, §2, §3

[7] = tested on: Human acute T lymphocytic leukemia cell (Molt4); assay: as above; settings: MOLT-4, 96 h; for inhibition at 0.01 µM: read-out: Inhibition Rate at 10 nM (%); for inhibition at 0.5 µM: read-out: Inhibition Rate at 500 nM (%)
Method: as §1, §2, §3

[8] = tested on: Human acute myeloid leukemia cell line: Kasumi-1; assay: as above; settings: Kasumi 1, 96 h; for inhibition at 0.01 µM: read-out: Inhibition Rate at 10 nM (%); for inhibition at 0.5 µM: read-out: Inhibition Rate at 500 nM (%)
[9] = tested on: Human multiple myeloma peripheral blood B lymphocyte cell (RPMI-8226); assay: as above; settings: RPMI-8226, 96 h; for inhibition at 0.01 µM: read-out: Inhibition Rate at 10 nM (%); for inhibition at 0.5 µM: read-out: Inhibition Rate at 500 nM (%)
[10] = tested on: Human multiple myeloma cell (MM.1S); assay: as above; settings: Homo sapiens, MM1.S, 96 h; for inhibition at 0.01 µM: read-out: Inhibition Rate at 10 nM (%); for inhibition at 0.5 µM: read-out: Inhibition Rate at 500 nM (%)
[11] = tested on: Human T lymphocytic leukemia cell line: Jurkat; assay: as above; settings: 96 h; for inhibition at 0.01 µM: read-out: Inhibition Rate at 10 nM (%); for inhibition at 0.5 µM: read-out: Inhibition Rate at 500 nM (%)
[12] = tested on: Human myeloid monocytic leukemia cell (MV-4-11); assay: as above; settings: MV4-11, 96 h; for inhibition at 0.01 µM: read-out: Inhibition Rate at 10 nM (%); for inhibition at 0.5 µM: read-out: Inhibition Rate at 500 nM (%)
Method: as §1, §2, §3

Compound | GSPT1 substrate protein remaining % (GSPT1) | inhibition at 0.01 µM [1] | inhibition at 0.5 µM [1] | inhibition at 0.5 µM [2] | inhibition at 2 µM [2] | Wee1 substrate protein remaining % (WEE1) | IKZF2 substrate protein remaining % (IKZF2) | IKZF 1 substrate protein remaining % (IKZF1) | CK1α substrate protein remaining % (CK1α) | IKZF3 substrate protein remaining % (IKZF3) | inhibition at 0.01 µM [3] | inhibition at 0.5 µM [3] | inhibition at 0.01 µM [4] | inhibition at 0.5 µM [4] | inhibition at 0.01 µM [5] | inhibition at 0.5 µM [5] | inhibition at 0.01 µM [6] | inhibition at 0.5 µM [6] | inhibition at 0.01 µM [7] | inhibition at 0.5 µM [7] | also measured
O=C1CCC(N2Cc3cc(CN4CCN(c5nc(Cl)nc6ccsc56)CC4)ccc3C2=S)C(=O)N1 (centres unmarked) [GT-09331, 3-(5-((4-(2-chlorothieno[3,2-d]pyrimidin-4-yl)piperazin-1-yl)methyl)-1-thioxoisoindolin-2-yl)piperidine-2,6-dione] | A (0% ≤ substrate protein remaining % ≤ 80%) | 30 to 40% | 50 to 60% | 80 to 100% | 80 to 100% | B (80%< substrate protein remaining %≤ 100%) | B (80%< substrate protein remaining %≤ 100%) | B (80%< substrate protein remaining %≤ 100%) | B (80%< substrate protein remaining %≤ 100%) | B (80%< substrate protein remaining %≤ 100%) | 20 to 30% | 40 to 50% | – | – | – | – | – | – | – | – | –
Cc1sc2ncnc(C3=CCN(Cc4ccc5c(c4)CN(C4CCC(=O)NC4=O)C5=S)CC3)c2c1C (centres unmarked) [GT-09318, 3-(5-((4-(5,6-dimethylthieno[2,3-d]pyrimidin-4-yl)-3,6-dihydropyridin-1(2H)-yl)methyl)-1-thioxoisoindolin-2-yl)piperidine-2,6-dione] | A (0% ≤ substrate protein remaining % ≤ 80%) | 20 to 30% | 60 to 70% | 53 to 60% | 80 to 100% | A (0% ≤ substrate protein remaining % ≤ 80%) | B (80%< substrate protein remaining %≤ 100%) | B (80%< substrate protein remaining %≤ 100%) | B (80%< substrate protein remaining %≤ 100%) | A (0% ≤ substrate protein remaining % ≤ 80%) | – | – | 10 to 20% | 80 to 100% | 10 to 20% | 80 to 100% | – | – | – | – | –
O=C1CCC(N2Cc3cc(CN4CCN(Cc5ccccc5-c5ccc(Cl)cc5)CC4)ccc3C2=S)C(=O)N1 (centres unmarked) [GT-08166, 3-(5-((4-((4'-chloro-[1,1'-biphenyl]-2-yl)methyl)piperazin-1-yl)methyl)-1-thioxoisoindolin-2-yl)piperidine-2,6-dione] | A (0% ≤ substrate protein remaining % ≤ 80%) | – | – | 20 to 30% | 60 to 80% | A (0% ≤ substrate protein remaining % ≤ 80%) | A (0% ≤ substrate protein remaining % ≤ 80%) | B (80%< substrate protein remaining %≤ 100%) | B (80%< substrate protein remaining %≤ 100%) | A (0% ≤ substrate protein remaining % ≤ 80%) | – | 60 to 70% | – | – | – | – | 10 to 20% | 80 to 100% | 10 to 20% | 80 to 100% | inhibition at 0.01 µM [8]: 10 to 20%; inhibition at 0.5 µM [8]: 80 to 100%; inhibition at 0.01 µM [9]: 10 to 20%; inhibition at 0.5 µM [9]: 60 to 70%; inhibition at 0.01 µM [10]: 40 to 50%; inhibition at 0.5 µM [10]: 80 to 100%; inhibition at 0.01 µM [11]: 10 to 20%; inhibition at 0.5 µM [11]: 80 to 100%; inhibition at 0.01 µM [12]: 30 to 40%; inhibition at 0.5 µM [12]: 80 to 100%
O=C1CCC(N2Cc3cc(CN4CC=C(c5ncnc6sc7c(c56)CCCC7)CC4)ccc3C2=S)C(=O)N1 (centres unmarked) [GT-09324, 3-(5-((4-(5,6,7,8-tetrahydrobenzo[4,5]thieno[2,3-d]pyrimidin-4-yl)-3,6-dihydropyridin-1(2H)-yl)methyl)-1-thioxoisoindolin-2-yl)piperidine-2,6-dione] | A (0% ≤ substrate protein remaining % ≤ 80%) | 30 to 40% | 80 to 100% | 60 to 80% | 80 to 100% | A (0% ≤ substrate protein remaining % ≤ 80%) | B (80%< substrate protein remaining %≤ 100%) | B (80%< substrate protein remaining %≤ 100%) | B (80%< substrate protein remaining %≤ 100%) | B (80%< substrate protein remaining %≤ 100%) | – | – | 20 to 30% | 80 to 100% | 10 to 20% | 80 to 100% | – | – | – | – | –
O=C1CCC(N2Cc3cc(CN4CC=C(c5ncnc6sc7c(c56)CCC7)CC4)ccc3C2=S)C(=O)N1 (centres unmarked) [GT-09325, 3-(5-((4-(6,7-dihydro-5H-cyclopenta[4,5]thieno[2,3-d]pyrimidin-4-yl)-3,6-dihydropyridin-1(2H)-yl)methyl)-1-thioxoisoindolin-2-yl)piperidine-2,6-dione] | A (0% ≤ substrate protein remaining % ≤ 80%) | 20 to 30% | 80 to 100% | 60 to 80% | 80 to 100% | A (0% ≤ substrate protein remaining % ≤ 80%) | B (80%< substrate protein remaining %≤ 100%) | B (80%< substrate protein remaining %≤ 100%) | B (80%< substrate protein remaining %≤ 100%) | B (80%< substrate protein remaining %≤ 100%) | – | – | -15 to -5% | 80 to 100% | 5 to 10% | 80 to 100% | – | – | – | – | –
O=C1CCC(N2Cc3cc(CN4CCC(c5cccc(F)c5Cl)CC4)ccc3C2=S)C(=O)N1 (centres unmarked) [GT-08330, 3-(5-((4-(2-chloro-3-fluorophenyl)piperidin-1-yl)methyl)-1-thioxoisoindolin-2-yl)piperidine-2,6-dione] | A (0% ≤ substrate protein remaining % ≤ 80%) | – | – | 40 to 53% | 60 to 80% | A (0% ≤ substrate protein remaining % ≤ 80%) | A (0% ≤ substrate protein remaining % ≤ 80%) | A (0% ≤ substrate protein remaining % ≤ 80%) | A (0% ≤ substrate protein remaining % ≤ 80%) | A (0% ≤ substrate protein remaining % ≤ 80%) | 10 to 20% | 50 to 60% | – | – | – | – | 5 to 10% | 80 to 100% | -5 to 0% | 80 to 100% | inhibition at 0.01 µM [8]: 5 to 10%; inhibition at 0.5 µM [8]: 80 to 100%; inhibition at 0.01 µM [9]: 10 to 20%; inhibition at 0.5 µM [9]: 70 to 80%; inhibition at 0.01 µM [10]: 20 to 30%; inhibition at 0.5 µM [10]: 80 to 100%; inhibition at 0.01 µM [11]: -5 to 0%; inhibition at 0.5 µM [11]: 70 to 80%; inhibition at 0.01 µM [12]: 10 to 18%; inhibition at 0.5 µM [12]: 80 to 100%
